For assay [1], the system named is adjuvant-induced arthritis rats. In words: Adjuvant-induced arthritis, therapeutic and prophylactic model. It is filed as in vivo, rat. Here is the method: The adjuvant-induced arthritis model is a representative chronic inflammation model caused in rats, and it is widely used for pharmacological evaluation of antiinflammatory drugs and antirheumatic drugs. Accordingly, effects of Compound (I) and Compound (II) were examined in both therapeutic and prophylactic model. In the therapeutic model, the difference of the volume of a hind leg before and after the dosed period was calculated to examine edema suppression effect by the drug administration and the change of edema volume was examined. In the prophylactic model, the volume of a hind paw was measured over time during the dosed period and the effect of the drug for a long term period was examined. Although the hind paw volume or the edema volume was used as the index of efficacy evaluation, the edema volume means the increment from the normal volume of the hind paw which was not sensitized with the adjuvant, and therefore, the both indices can be used as approximately the same meaning.
A liquid paraffin suspension (1 mg/200 μl) of Mycobacterium butyricum (adjuvant) was subcutaneously injected at the tarsal part of the right hind paw of SD or Lewis rats (both male, six-week old) to cause arthritis. In the therapeutic model, 0.5% methylcellulose suspension of Compound (I) or Compound (II) which was prepared so that the dose was 1 ml per 100 g body weight was orally administered once a day for consecutive five days from the 17th day after the injection of the adjuvant. An indomethacin suspension prepared in the similar way was administered as the positive control. The volume of the hind paws was measured respectively for the right and the left by water replacement method just before the administration and in five hours after the last administration and the difference in the values just before the administration and in five hours after the last administration was calculated and assumed as the change in the edema volume. In the prophylatic model, the compounds were administered once a day for consecutive 21 days after the day when the adjuvant was injected. The volume of the right and left hind paws was measured by water replacement method every other day. In the prophylactic model of Compound (II), a suspension of D-penicillamine, an antirheumatic drug, was administered in the same way as a control.

Assay [2] deals with collagen-induced arthritis mouse. In words: Collagen-induced arthritis in mice. It counts as in vivo. As to the method: Efficacy evaluation of Compound (I) was performed using a collagen-induced arthritis in mice as an animal model of rheumatoid arthritis. The collagen-induced arthritis was caused following an ordinary method. That is, 0.1 ml of emulsion was injected to a mouse (DBA/1J, male, Charles River Laboratories Japan) at the base of the tail under etherization as primary immunization. The emulsion was prepared by mixing the same volume of a bovine type II collagen solution (2 mg/ml, Collagen Kenshukai) and Freund Complete Adjuvant (Difco). 0.1 ml of emulsion of the same composition was injected at the base of the tail as booster immunization after three weeks and arthritis was caused. The severity of arthritis was indicated as a score according to the following criteria.
1: Swelling at two or less joints
2: Swelling at three or more joints/Slight redding and edema at limbs
3: Swelling at three or more joints/Moderate redding and edema at limbs
4: Severe redding and edema at limbs/Ankylosis
Evaluation is performed for each limb with 0 to 4 points and therefore the possible maximum score in one individual is 16.
Compound (I) and prednisolone (positive control) were suspended in 0.5% methylcellulose solution and 0.1 ml per 10 g mouse weight was orally administered. In a control group, only 0.5% methylcellulose solution was orally administered. The administration was started with the primary immunization and carried out once a day for consecutive 35 days.

Assay [3] concerns adjuvant-induced arthritis rats. In words: Combination effect on adjuvant-induced arthritis (Example 18). It counts as in vivo, rat. The following applies: only Compound (I) 10 mg/kg oral 12 days from day 10. As to the method:
Combination effect with Compound (I) and DMARDs (methotrexate) was examined in the same way as in Example 17.
Administration of a DMARD (methotrexate (0.060 mg/kg or 0.045 mg/kg; 0.5% methylcellulose suspension)) to the rat in which adjuvant-induced arthritis was caused in the same way as in Example 17 was started on the day when the adjuvant was injected and continued once a day for consecutive 21 days. Compound (I) (10 mg/kg) was orally administered singly or in combination once a day for consecutive 12 days from the 10 days after the sensitization. The volume of the left hind paw was measured by water replacement method every other day.

Assay [4] has the same test system. Kind of assay: Combination effect on adjuvant-induced arthritis, joint destruction score by soft X-ray (Example 20). It counts as in vivo, rat. Here is the method:
Combination effect for adjuvant-induced arthritic rats was examined in the same manner as in Example 17.
Euthanasia was carried out for all the rats by aspiration of high concentration carbon dioxide after the last administration. Both the hind paws were cut off at the middle point of […]. Both the hind paws were fixed with 10% neutral buffered formalin liquid. […] The degree of joint destruction was recorded with a score. Observed sites were three points of the tibia, calcaneum and tarsal bone, and the possible maximum score was 12.
1: Minimum destruction of joints and bones and new formation of cartilages
2: Mild destruction of joints and bones and new formation and light ossification of cartilages
3: Moderate destruction of joints and bones and ossification
4: Severe destruction and deformation of joints and bones and intense ossification

The subject of a further assay is adjuvant arthritis rats. The following applies: reported in Patent Documents 3, 4 and Non-Patent Documents 3 to 5; cited from earlier work.
Assay [5] has as its system collagen-induced arthritis rats. The following applies: reported in Patent Document 3 and Non-Patent Documents 3 to 5; cited from earlier work.
Assay [6] has as its system experimental allergic encephalomyelitis mice. Kind of assay: Experimental allergic encephalomyelitis, KN-93. It is filed as in vivo, mouse. Here is the method: The efficacy evaluation of KN-93 was performed with the experimental allergic encephalomyelitis mice as an animal model of multiple sclerosis. The experimental allergic encephalomyelitis was caused following the method of Bradley et al. (J. Clinical Investigation, 107: 995-1006, 2001). That is, 150 μg of PLP partial peptide (PLP139-151: NH2—[…]—COOH, SEQ ID NO 12) mixed in a Freund complete adjuvant was injected subcutaneously to a seven-week old female SJL/J mouse (purchased from Charles River Laboratories Japan) at the rear back. The severity of the condition was indicated as a score (disease score) according to the following criteria.
0.5: Slight paralysis of tail
2: Light paralysis of hind leg
3: Medium to intense paralysis of hind leg or light forelimb paralysis
4: Complete paralysis of hind paw or medium to intense paralysis of forelimb
5: Paralysis of four limbs or toward death period
KN-93 was suspended in 0.5% methylcellulose solution (0.1 mg/ml) and 0.1 ml per 10 g mouse weight was subcutaneously administered. In a control group, only 0.5% methylcellulose solution was subcutaneously administered. The administration was started on the 7 days after sensitization and carried out once a day for consecutive 24 days.

Where [7] appears, read: 5 mg/kg oral once a day 35 days.

Molecules are shown by their SMILES.

Regarding `C[C@@H](c1ccc(-c2ccccc2)c(F)c1)c1cc(/N=C(/N)N2CCOCC2)on1` [Compound (I), 3-[(1S)-1-(2-fluorobiphenyl-4-yl)ethyl]-5-{[amino(morpholin-4-yl)methylene]amino}isoxazole], the “p, left hind paw volume (AUC value), Williams's multiple comparison” value in assay [1] (prophylactic model, 20 mg/kg) is given as < 0.05. In addition, in assay [1] (prophylactic model, oral once a day for 21 days, Compound (I) 2.5 to 80 mg/kg, Compound (II) 50 mg/kg, FIGS. 8 and 9), the “hind paw volume / edema volume” value is given as “remarkable edema suppressing effect”. For the same compound, in assay [1] (therapeutic model, oral once a day for five days from 17th day, Compound (I) 2.5 to 80 mg/kg, Compound (II) 10 to 50 mg/kg, FIGS. 6 and 7), the “change of edema volume of hind paw” value is “remarkable edema suppressing effect”. Also, in assay [2] (setting [7]), the “p, arthritis onset ratio, Fischer's direct probability method with Bonferroni's correction” value is < 0.05 and the “p, arthritis score, Shirley-Williams multiple comparison test” value is reported as < 0.05. In addition, the onset of arthritis result in assay [2] (5 to 80 mg/kg oral once a day 35 days, FIG. 10) is “dose-dependently suppressed”. For the same compound, the degree of arthritis entry in assay [2] (5 to 80 mg/kg oral once a day 35 days, FIG. 11) is reported as “slight”. Further, the “onset ratio and volume of left hind paw” value in assay [3] is listed as “very little effect”. Besides, the “joint destruction score of the left hind paw, representative individual which showed an average score in the group” value in assay [4] (Compound (I) 40 mg/kg and/or methotrexate 0.06 mg/kg, control score 3, maximum 12) amounted to 1. Further, the “joint destruction score of the right hind paw, representative individual which showed an average score in the group” value in assay [4] (Compound (I) 40 mg/kg and/or methotrexate 0.06 mg/kg, control score 10, maximum 12) was determined as 5. Moreover, in assay [4] (Compound (I) 20, 40, 80 mg/kg in combination with methotrexate 0.06 mg/kg, 17 days), the “joint destruction of right and left hind paws” value is “dose-dependently and conspicuously enhanced joint destruction suppressing effect of methotrexate”. The “joint destruction of right and left hind paws” value in assay [4] (only Compound (I) 20, 40, 80 mg/kg oral once a day 17 days) is “dose-dependently showed joint destruction suppressing effect”. Moreover, the “effects on adjuvant arthritis rats” value in the assay on adjuvant arthritis rats was “anti-arthritis effects”. The “effects on collagen-induced arthritis rats” value in assay [5] is “anti-arthritis effects”.

Regarding `COc1ccc(S(=O)(=O)N(CCO)c2ccccc2CN(C)C/C=C/c2ccc(Cl)cc2)cc1` [KN-93, N-(2-[N-[4-chlorocinnamyl]-N-methylaminomethyl]phenyl)-N-(2-hydroxyethyl)-4-methoxybenzenesulfonamide, reference compound], the “condition (disease score)” value in assay [6] (1 mg/kg subcutaneous once a day 24 days from 7 days after sensitization, FIG. 12) is “much lighter as compared with the control group”. In addition, the death in assay [6] (1 mg/kg subcutaneous once a day 24 days, control 7 of 10) is listed as 2 of 10.

These data come from patent US20080255121A1, “Combination Drug for Treating Autoimmune Disease” (DAINIPPON SUMITOMO PHARMA CO., LTD., priority 2004, published 2008).
